Patent US20260007601A1, “IONIZABLE CATIONIC LIPID COMPOUND AND COMPOSITION FOR DELIVERING NUCLEIC ACID AND USE THEREOF” (BEIJING YOUCAREKECHUANG PHARMACEUTICAL TECHNOLOGY CO., LTD., priority 2023, published 2026)
“And” between values parts separate entries of the source, which are not always exact repeats. Equal values may be shown once.

Assays:
293T cells [1] = assay: Cell survival rate assay (CCK-8); type: cell-based
Procedure, shortened: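 293T cells seeded at 10,000 per well and grown overnight, then exposed for 24 h to LNPs (cationic/neutral/structured/PEG lipids 49:10:39.5:1.5) carrying 1.5 μg Fluc-mRNA, or Lipofectamine 3000. Viability read by CCK-8, 1 h incubation, absorbance at 450 nm.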

female BALB/C mice = assay: Mouse in vivo imaging of Fluc-mRNA LNP formulations; set-up: average radiation intensity (mRNA expression): unit not given here; details: for average radiation intensity (mRNA expression): 10 μg Fluc-mRNA LNP intramuscularly
Procedure, shortened: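 Female BALB/C mice (4–6 weeks, 17–19 g) received LNP carrying 10 μg Fluc-mRNA intramuscularly. Imaging substrate given intraperitoneally at 6 h, 24 h, 48 h and 7 d; after 5 min free movement, average radiance read by IVIS Spectrum imaging.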

293T cells [2] = assay: Cell transfection experiment of LNP formulation of eGFP-mRNA (optimization of preparation conditions); type: cell-based; details: 0.5% to 15% tested
Method: The cationic lipid compound YK-202 synthesized in Example 1, DSPC (AVT (Shanghai) Pharmaceutical Technology Co., Ltd.), cholesterol (AVT (Shanghai) Pharmaceutical Technology Co., Ltd.) and DMG-PEG2000 were dissolved in ethanol at a molar ratio of 49:10:39.5:1.5 to prepare an ethanol lipid solution. The ethanol lipid solution was quickly added to a citrate buffer (pH=4 to 5) by ethanol injection method and vortexed for 30 seconds for use. eGFP-mRNA was diluted in a citrate buffer (pH=4 to 5) to obtain an mRNA aqueous solution. […]
Plating: The cells in the culture dish were digested, counted, plated in a 96-well plate at 10,000 cells per well, or in a 12-well plate at 150,000 cells per well, and cultured overnight until the cells adhered to the wall.
Cell transfection experiment: The LNP formulation containing 1.5 μg of eGFP-mRNA prepared in Example 2 (the cationic lipid in the carrier was YK-202) and Lipofectamin 3000 formulation of eGFP-mRNA were added to the cell culture medium in a 12-well plate, and the cells were cultured for 24 hours. The transfection efficiency of different samples was investigated by fluorescence microscopy based on the fluorescence intensity.

CCCCCCCCCCCOC(=O)CCCCCN(CCCCCCCC(=O)OCC(CCCCCCCC)CCCCCCCC)CCN(C)CCO [YK-202]
Cell survival rate (293T cells [1]; LNP containing 1.5 μg Fluc-mRNA, 24 hours, CCK-8): 76.81%
cell survival rate higher (cytotoxicity reduced) compared with YK-221 (293T cells [1]; difference of rates): 55% and 55.86%
cell survival rate higher (toxicity lower) than that of YK-204 (293T cells [1]; difference of rates): 34.24%
cell survival rate higher (toxicity lower) than that of YK-225 (293T cells [1]; difference of rates): 33.40%
cell survival rate higher than that of ALC-0315 (293T cells [1]; difference of rates): 26.85%
cell survival rate higher than that of HHMA (293T cells [1]; difference of rates): 11.25%
cell survival rate higher than that of Lipofectamine 3000 (293T cells [1]; difference of rates): 53.76%
cell survival rate higher than that of SM-102 (293T cells [1]; difference of rates): 8.26%
cell survival rate higher than that of YK-203 (293T cells [1]; difference of rates): 41.25%
cell survival rate higher than that of YK-205 (293T cells [1]; difference of rates): 17.89%
cell survival rate higher than that of YK-208 (293T cells [1]; difference of rates): 30.13%
cell survival rate higher than that of YK-210 (293T cells [1]; difference of rates): 38.43%
cell survival rate higher than that of YK-211 (293T cells [1]; difference of rates): 24.51%
cell survival rate higher than that of YK-212 (293T cells [1]; difference of rates): 41.55%
cell survival rate higher than that of YK-213 (293T cells [1]; difference of rates): 35.37%
cell survival rate higher than that of YK-214 (293T cells [1]; difference of rates): 51.23% and 50%
cell survival rate higher than that of YK-215 (293T cells [1]; difference of rates): 32.22%
cell survival rate higher than that of YK-216 (293T cells [1]; difference of rates): 31.01%
cell survival rate higher than that of YK-217 (293T cells [1]; difference of rates): 34.54%
cell survival rate higher than that of YK-219 (293T cells [1]; difference of rates): 18.20%
cell survival rate higher than that of YK-220 (293T cells [1]; difference of rates): 17.82%
cell survival rate higher than that of YK-222 (293T cells [1]; difference of rates): 43.06%
cell survival rate higher than that of YK-223 (293T cells [1]; difference of rates): 40.17%
cell survival rate higher than that of YK-224 (293T cells [1]; difference of rates): 53.34%
cell survival rate higher than that of YK-226 (293T cells [1]; difference of rates): 48.91%
cell survival rate higher than that of compound 21 (293T cells [1]; difference of rates): 7.79%
cell survival rate higher than that of compound 23 (293T cells [1]; difference of rates): 6.71%
average radiation intensity, times that of ALC-0315 (female BALB/C mice; 6 h): 3.48 times
average radiation intensity, times that of HHMA (female BALB/C mice; 6 h): 4.59 times
average radiation intensity, times that of SM-102 (female BALB/C mice; 6 h): 4.32 times
average radiation intensity, times that of compound 21 (female BALB/C mice; 6 h): 4.89 times
average radiation intensity, times that of compound 23 (female BALB/C mice; 6 h): 4.94 times
mRNA expression level, times that of YK-204 (female BALB/C mice; 6 h): 83.29 times
mRNA expression level, times that of YK-223 (female BALB/C mice; 6 h): 283.49 times
average radiation intensity (mRNA expression) (female BALB/C mice; 6 h): 2935500
expression level, times that of YK-215 (female BALB/C mice; 6 hours): 58.06 times
expression level, times that of YK-217 (female BALB/C mice; 6 hours): 119.40 times
average radiation intensity, times that of ALC-0315 (female BALB/C mice; 24 h): 11.84 times
average radiation intensity, times that of HHMA (female BALB/C mice; 24 h): 19.69 times
average radiation intensity, times that of SM-102 (female BALB/C mice; 24 h): 18.64 times
average radiation intensity, times that of compound 21 (female BALB/C mice; 24 h): 19.99 times
average radiation intensity, times that of compound 23 (female BALB/C mice; 24 h): 19.47 times
mRNA expression level, times that of YK-204 (female BALB/C mice; 24 h): 412.78 times
mRNA expression level, times that of YK-223 (female BALB/C mice; 24 h): 1208.76 times
average radiation intensity (mRNA expression) (female BALB/C mice; 24 h): 2158840
expression level, times that of YK-215 (female BALB/C mice; 24 hours): 316.78 times
expression level, times that of YK-217 (female BALB/C mice; 24 hours): 814.66 times
average radiation intensity, times that of ALC-0315 (female BALB/C mice; 48 h): 19.80 times
average radiation intensity, times that of HHMA (female BALB/C mice; 48 h): 25.64 times
average radiation intensity, times that of SM-102 (female BALB/C mice; 48 h): 24.71 times
average radiation intensity, times that of compound 21 (female BALB/C mice; 48 h): 25.15 times
average radiation intensity, times that of compound 23 (female BALB/C mice; 48 h): 23.54 times
mRNA expression level, times that of YK-204 (female BALB/C mice; 48 h): 309.43 times
mRNA expression level, times that of YK-223 (female BALB/C mice; 48 h): 1113.57 times
average radiation intensity (mRNA expression) (female BALB/C mice; 48 h): 755000
expression level, times that of YK-215 (female BALB/C mice; 48 hours): 207.42 times
expression level, times that of YK-217 (female BALB/C mice; 48 hours): 737.30 times
average radiation intensity, times that of ALC-0315 (female BALB/C mice; 7 d): 5.09 times
average radiation intensity, times that of HHMA (female BALB/C mice; 7 d): 6.31 times
average radiation intensity, times that of SM-102 (female BALB/C mice; 7 d): 5.68 times
average radiation intensity, times that of compound 21 (female BALB/C mice; 7 d): 5.49 times
average radiation intensity, times that of compound 23 (female BALB/C mice; 7 d): 5.75 times
expression level, times that of YK-215 (female BALB/C mice; 7 d): 32.87 times
expression level, times that of YK-217 (female BALB/C mice; 7 d): 64.10 times
mRNA expression level, times that of YK-204 (female BALB/C mice; 7 d): 44.46 times
mRNA expression level, times that of YK-223 (female BALB/C mice; 7 d): 76.19 times
average radiation intensity (mRNA expression) (female BALB/C mice; 7 d): 33524
mRNA expression level in mice can reach, times that of SM-102 (female BALB/C mice; time point not stated): 24 times
molar ratio of polymer-conjugated lipid DMG-PEG2000 to carrier with the highest transfection efficiency (293T cells [2]): 1.5%
